Data: US20160039825A1 (BIOGEN MA INC., priority 2013, published 2016)

Target: T1, Human ATX protein (Homo sapiens, UniProt Q13822)
T1 construct: made in house
Experiment: Autotaxin (ATX) assay, FRET with FS-3 substrate
Type: biochemical
Conditions: upper bound bins (no greater than 100, 250 or 500 nM); FS-3 2 μM, ATX 1.0 μg/mL
Outline: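 In-house human ATX (1.0 μg/mL final) was preincubated with compound for 30 min at room temperature in Tris buffer pH 7.4 with NaCl, KCl, CaCl2, MgCl2 and 1 mg/mL fatty acid-free BSA. FS-3 (2 μM final) was added and the plate shaken 2 h at room temperature in the dark. Fluorescence was read at ex 485/em 538 nm.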

Row | SMILES | IC50 [µM]
1 | CC1(C)CNCCN1C(=O)c1cc2n(n1)CCCN(C(=O)OCc1cc(Cl)cc(C(F)(F)F)c1)C2 [Example 207, 3-chloro-5-(trifluoromethyl)benzyl 2-(2,2-dimethylpiperazine-1-carbonyl)-7,8-dihydro-4H-pyrazolo[1,5-a][1,4]diazepine-5(6H)-carboxylate] | ≤ 0.1
2 | CC1CN(C(=O)c2cc3n(n2)CCCN(C(=O)OCc2cc(Cl)cc(C(F)(F)F)c2)C3)CCN1 (stereo not drawn) [Example 208] | ≤ 0.1
3 | O=C(OCc1cc(Cl)cc(C(F)(F)F)c1)N1CCCn2nc(C(=O)N3CC4CCC(C3)N4)cc2C1 [Example 209] | ≤ 0.1
4 | O=C(OCc1cc(Cl)cc(C(F)(F)F)c1)N1CCCn2nc(C(=O)N3CCNCC34CC4)cc2C1 [Example 210] | ≤ 0.1
5 | O=C(OCc1cc(Cl)cc(C(F)(F)F)c1)N1CCCn2nc(C(=O)N3CCN4CCC[C@H]4C3)cc2C1 [Example 211] | ≤ 0.1
6 | O=C1CN(C(=O)c2cc3n(n2)CCCN(C(=O)OCc2cc(Cl)cc(C(F)(F)F)c2)C3)CCN1 [Example 212] | ≤ 0.1
7 | O=C(OCc1cc(Cl)cc(C(F)(F)F)c1)N1CCCn2nc(C(=O)N3CCN4CCC[C@@H]4C3)cc2C1 [Example 214] | ≤ 0.1
8 | CN1CCN(C(=O)c2cc3n(n2)CCCN(C(=O)OCc2cc(C(F)(F)F)cc(C(F)(F)F)c2)C3)CC1 [Example 215] | ≤ 0.1
9 | CN1C2CCCC1CN(C(=O)c1cc3n(n1)CCCN(C(=O)OCc1cc(Cl)cc(C(F)(F)F)c1)C3)C2 [Example 217] | ≤ 0.1
10 | CN1CCN(C(=O)c2cc3n(n2)CCCN(C(=O)OCc2cc(C(F)(F)F)cc(C(F)(F)F)c2)C3)C(C)(C)C1 [Example 218] | ≤ 0.1
11 | O=C(OCc1cc(C(F)(F)F)cc(C(F)(F)F)c1)N1CCCn2nc(C(=O)N3CCNCC34CC4)cc2C1 [Example 219] | ≤ 0.1
12 | CN1CCN(C(=O)c2cc3n(n2)CCCN(C(=O)OCc2cc(C(F)(F)F)cc(C(F)(F)F)c2)C3)C2(CC2)C1 [Example 220] | ≤ 0.1
13 | O=C(OCc1cc(C(F)(F)F)cc(C(F)(F)F)c1)N1CCCn2nc(C(=O)N3CC4CCC(C3)N4)cc2C1 [Example 221] | ≤ 0.1
14 | CC1CN(C(=O)c2cc3n(n2)CCCN(C(=O)OCc2cc(C(F)(F)F)cc(C(F)(F)F)c2)C3)CC(C)N1 (stereo not drawn) [Example 223] | ≤ 0.1
15 | CN1C2CCC1CN(C(=O)c1cc3n(n1)CCCN(C(=O)OCc1cc(C(F)(F)F)cc(C(F)(F)F)c1)C3)C2 [Example 225] | ≤ 0.1
16 | O=C(O)C1CNCCN1C(=O)c1cc2n(n1)CCCN(C(=O)OCc1cc(Cl)cc(C(F)(F)F)c1)C2 (stereo not drawn) [Example 226] | ≤ 0.1
17 | O=C(O)C1CN(C(=O)c2cc3n(n2)CCCN(C(=O)OCc2cc(Cl)cc(C(F)(F)F)c2)C3)CCN1 (stereo not drawn) [Example 227] | ≤ 0.1
18 | CN1C2CCCC1CN(C(=O)c1cc3n(n1)CCCN(C(=O)OCc1cc(C(F)(F)F)cc(C(F)(F)F)c1)C3)C2 [Example 230] | ≤ 0.1
19 | CCC1(CC)CNCCN1C(=O)c1cc2n(n1)CCCN(C(=O)OCc1cc(Cl)cc(C(F)(F)F)c1)C2 [Example 231] | ≤ 0.1
20 | CN1CCN(C(=O)c2cc3n(n2)CCCN(C(=O)OCc2cc(Cl)cc(C(F)(F)F)c2)C3)C2(CCCC2)C1 [Example 232] | ≤ 0.1
21 | N#CC1CN(C(=O)c2cc3n(n2)CCCN(C(=O)OCc2cc(C(F)(F)F)cc(C(F)(F)F)c2)C3)CCN1 (stereo not drawn) [Example 246] | ≤ 0.1
22 | C[C@H]1CNC[C@H](C)N1C(=O)c1cc2n(n1)CCCN(C(=O)OCc1cc(C(F)(F)F)cc(C(F)(F)F)c1)C2 [Example 247] | ≤ 0.1
23 | C[C@@H]1CNC[C@@H](C)N1C(=O)c1cc2n(n1)CCCN(C(=O)OCc1cc(C(F)(F)F)cc(C(F)(F)F)c1)C2 [Example 248] | ≤ 0.1
24 | CC1CNCC(C)N1C(=O)c1cc2n(n1)CCCN(C(=O)OCc1cc(C(F)(F)F)cc(C(F)(F)F)c1)C2 (stereo not drawn) [Example 249] | ≤ 0.1

Next, values leading:

Row | IC50 [µM] | SMILES
25 | ≤ 0.1 | CCC1CN(C(=O)c2cc3n(n2)CCCN(C(=O)OCc2cc(Cl)cc(C(F)(F)F)c2)C3)CCN1 (stereo not drawn) [Example 206]
26 | ≤ 0.1 | CC1CNCCN1C(=O)c1cc2n(n1)CCCN(C(=O)OCc1cc(Cl)cc(C(F)(F)F)c1)C2 (stereo not drawn) [Example 213]
27 | ≤ 0.1 | CN1CCN(C(=O)c2cc3n(n2)CCCN(C(=O)OCc2cc(Cl)cc(C(F)(F)F)c2)C3)CC1 [Example 216]
28 | ≤ 0.1 | CN1CC2CCC1CN2C(=O)c1cc2n(n1)CCCN(C(=O)OCc1cc(C(F)(F)F)cc(C(F)(F)F)c1)C2 (stereo not drawn) [Example 222]
29 | ≤ 0.1 | O=C(OCc1cc(C(F)(F)F)cc(C(F)(F)F)c1)N1CCCn2nc(C(=O)N3CC4CCC3CN4)cc2C1 (stereo not drawn) [Example 224]
30 | ≤ 0.1 | O=C(OCc1cc(Cl)cc(Cl)c1)N1CCCn2nc(C(=O)N3CCN4CCC[C@@H]4C3)cc2C1 [Example 228]
31 | ≤ 0.1 | CCC1(CC)CN(C)CCN1C(=O)c1cc2n(n1)CCCN(C(=O)OCc1cc(Cl)cc(C(F)(F)F)c1)C2 [Example 229]
32 | ≤ 0.1 | CN1CCN(C(=O)c2cc3n(n2)CCCN(C(=O)OCc2cc(C(F)(F)F)cc(C(F)(F)F)c2)C3)C2(CCC2)C1 [Example 233]
33 | ≤ 0.1 | O=C(OCc1cc(Cl)cc(C(F)(F)F)c1)N1CCCn2nc(C(=O)N3CCNCC34CCCC4)cc2C1 [Example 234]
34 | ≤ 0.1 | O=C(OCc1cc(C(F)(F)F)cc(C(F)(F)F)c1)N1CCCn2nc(C(=O)N3CCNCC34CCC4)cc2C1 [Example 235]
35 | ≤ 0.1 | CCN1CCN(C(=O)c2cc3n(n2)CCCN(C(=O)OCc2cc(C(F)(F)F)cc(C(F)(F)F)c2)C3)C2(CC2)C1 [Example 237]
36 | ≤ 0.1 | CN1CCN(C(=O)c2cc3n(n2)CCCN(C(=O)OCc2cc(C(F)(F)F)cc(C(F)(F)F)c2)C3)C2(CCCC2)C1 [Example 238]
37 | ≤ 0.1 | CC1(C)CNCCN1C(=O)c1cc2n(n1)CCCN(C(=O)OCc1cc(C(F)(F)F)cc(C(F)(F)F)c1)C2 [Example 239]
38 | ≤ 0.1 | O=C(OCc1cc(C(F)(F)F)cc(C(F)(F)F)c1)N1CCCn2nc(C(=O)N3CCNCC34CCCC4)cc2C1 [Example 240]
39 | ≤ 0.1 | CCC1(CC)CNCCN1C(=O)c1cc2n(n1)CCCN(C(=O)OCc1cc(C(F)(F)F)cc(C(F)(F)F)c1)C2 [Example 241]
40 | ≤ 0.1 | CNC1CN(C(=O)c2cc3n(n2)CCCN(C(=O)OCc2cc(C(F)(F)F)cc(C(F)(F)F)c2)C3)C1 [Example 242]
41 | ≤ 0.1 | CNC1CCN(C(=O)c2cc3n(n2)CCCN(C(=O)OCc2cc(C(F)(F)F)cc(C(F)(F)F)c2)C3)C1 (stereo not drawn) [Example 243]
42 | ≤ 0.1 | CCN1CCN(C(=O)c2cc3n(n2)CCCN(C(=O)OCc2cc(C(F)(F)F)cc(C(F)(F)F)c2)C3)C(C)(C)C1 [Example 244]
43 | ≤ 0.1 | N#CC1CNCCN1C(=O)c1cc2n(n1)CCCN(C(=O)OCc1cc(C(F)(F)F)cc(C(F)(F)F)c1)C2 (stereo not drawn) [Example 245]
44 | ≤ 0.1 | O=C(CCl)c1cc2n(n1)CCCN(C(=O)OCc1cc(Cl)cc(C(F)(F)F)c1)C2 [Example 250, 3-Chloro-5-(trifluoromethyl)benzyl 2-(2-chloroacetyl)-7,8-dihydro-4H-pyrazolo[1,5-a][1,4]diazepine-5(6H)-carboxylate]
45 | ≤ 0.1 | O=C(OCc1cc(C(F)(F)F)cc(C(F)(F)F)c1)N1CCn2nc(C3CN4CCC[C@H]4CO3)cc2C1 (stereo partly drawn) [Example 255, 3,5-bis(trifluoromethyl)benzyl 2-((8aS)-hexahydro-1H-pyrrolo[2,1-c][1,4]oxazin-3-yl)-6,7-dihydropyrazolo[1,5-a]pyrazine-5(4H)-carboxylate]
